Here are results for two compounds from ChEMBL document CHEMBL3868596, “A new target for Parkinson's disease: Small molecule SERCA activator CDN1163 ameliorates dyskinesia in 6-OHDA-lesioned rats” (Bioorg Med Chem, 2017).

Activity calls are given as the source filed them. No cut-off for these calls is given here.

In data set [1] the test system is Rattus norvegicus. As to the kind of experiment: Antiakinetic activity in 6-OHDA induced unilaterally lesioned Wistar rat Parkinson's disease model assessed as reduction in 6-OHDA-induced increase in initiation time to move towards plane surface at 10 mg/kg, ip qd administered 5 days prior to 6-OHDA-challenge measured 1 hr post compound treatment on day 11 relative to non-lesioned control. Format: functional, organism-based.

For data set [2], the system named is Rattus norvegicus. As to the kind of experiment: Antiakinetic activity in 6-OHDA induced unilaterally lesioned Wistar rat Parkinson's disease model assessed as restoration of 6-OHDA-induced decrease in number of adjusting steps in contralateral forelimb at 10 mg/kg, ip qd administered 5 days prior to 6-OHDA-challenge measured on day 11 post 1 hr of last dosage. Format: functional, organism-based.

A short description of data set [3]: AUC in mouse at 2 mg/kg, po or 1 mg/kg, iv. In kind it is ADME, organism-based. To be noted: in vivo.
The species named for data set [4] is Rattus norvegicus. In words: Cytoprotection against thapsigargin-induced ER-stress in rat CSM14.1 cells assessed as increase in cell viability preincubated for 2 hrs followed by thapsigargin addition measured after 20 hrs by ATPlite assay relative to thapsigargin treated control. In kind it is functional, cell-based. (In general: Cellular ATP, detected with luciferase, serves as a proxy for viable cell number.)

The species named for data set [5] is Homo sapiens. As to the kind of experiment: Activation of SERCA (unknown origin).
In data set [6] the test system is HeLa. In words: Activation of SERCA in human HeLa cells expressing YFP/CFP fused cameleon assessed as reduction in thapsigargin-induced decrease in endoplasmic reticulum calcium level by inverted wide-field fluorescence microscopy. In kind it is cell-based.
Data set [7] can be described thus: Ratio of drug level in mouse brain to plasma at 10 mg/kg, ip measured after 1 hr. Format: ADME, organism-based. To be noted: read-out: BPR.
Data set [8] deals with Rattus norvegicus. As to the kind of experiment: Antiakinetic activity in 6-OHDA induced unilaterally lesioned Wistar rat Parkinson's disease model assessed as assessed as increase in double contacts compound administered ip, qd for 5 days prior to 6-OHDA-challenge measured on day 11 post 1.5 hr of last dosage by cylinder test. Format: functional.
Data set [9] is described as follows: Metabolic stability in human liver microsomes measured after 1 hr. To be noted: read-out: Stability. Format: ADME. On the technique in general: Liver microsomes are a subcellular fraction often used to study metabolism.
The nature of data set [10]: Cmax in mouse at 2 mg/kg, po or 1 mg/kg, iv. In kind it is ADME, organism-based. The note with it: in vivo.
Data set [11] in a line: Metabolic stability in mouse plasma measured after 1 hr. To be noted: read-out: Stability. Format: ADME, cell-free.
Data set [12] is described as follows: Cytoprotection against thapsigargin-induced ER-stress in rat CSM14.1 cells assessed as cell viability at 15 ug/ml preincubated for 2 hrs followed by thapsigargin addition measured after 20 hrs by ATPlite assay relative to thapsigargin treated control. Format: functional. The note with it: read-out: Activity.
Data set [13] can be described thus: Tmax in mouse at 2 mg/kg, po or 1 mg/kg, iv. In kind it is ADME, organism-based. The note with it: in vivo.
A short description of data set [14]: Permeability of the compound by PAMPA. In kind it is ADME.
Data set [15] concerns Rattus norvegicus. In words: Antiakinetic activity in 6-OHDA induced unilaterally lesioned Wistar rat Parkinson's disease model assessed as increase in double contacts at 10 mg/kg, ip qd administered 5 days prior to 6-OHDA-challenge measured on day 11 post 1.5 hr of last dosage by cylinder test. In kind it is functional, organism-based.
Data set [16] deals with Rattus norvegicus. As to the kind of experiment: Antiakinetic activity in 6-OHDA induced unilaterally lesioned Wistar rat Parkinson's disease model assessed as restoration of 6-OHDA-induced decrease in number of adjusting steps in contralateral forelimb administered ip qd for 5 days prior to 6-OHDA-challenge measured on day 11 post 1 hr of last dosage. In kind it is functional, organism-based.

In data set [17] the test system is Rattus norvegicus. In words: Antiakinetic activity in 6-OHDA induced unilaterally lesioned Wistar rat Parkinson's disease model assessed as reduction in 6-OHDA-induced increase in initiation time to move towards plane surface administered ip qd for 5 days prior to 6-OHDA-challenge measured 1 hr post compound treatment on day 11 relative to non-lesioned control. In kind it is functional, organism-based.

As usually defined, the AUC is the area under the concentration-time curve, a measure of exposure. The low end stands for low exposure, the high end for high exposure. In general, Cmax refers to the peak of the concentration-time curve. The Tmax is the time from dosing to the highest level. On to `Cc1ccc2cccc(NC(=O)c3ccc(OC(C)C)cc3)c2n1`, for which the result in data set [1], in [2], in data set [5], in [6] and in data set [8] was Active. Moreover, the AUC in data set [3] turned out to be 0.41 µM·h. Further, in data set [4], the Activity result was “Dose-dependent effect”. The Kp at 1 h in data set [7] lay within 2.83 to 3. The results for the remaining at 1 h in data set [9] and in data set [11] were 58% and 94%, respectively. The compound also returned a Cmax in [10] of 260 nM. The viability at 15 µg/mL in data set [12] was determined as 100%. Further, in data set [13], the Tmax is 40.2 min. In addition, the permeability entry in data set [14] is “Permeable”.

As to `N[C@@H](Cc1ccc(O)c(O)c1)C(=O)O`, the outcome in [15], in [16] and in [17] was Active.
